Laboratory results from BigSolDB 2.1.

COC(=O)Nc1nc2ccc(Sc3ccccc3)cc2[nH]1
solubility (mole fraction)
Conditions | 283.15 K | 288.15 K | 293.15 K | 298.15 K | 303.15 K | 308.15 K | 313.15 K | 318.15 K | 323.15 K | 328.15 K
in 1,4-dioxane | – | 0.00107 | 0.00124 | 0.00148 | 0.00169 | 0.00195 | 0.00222 | 0.00256 | 0.00289 | 0.00326
in NMP | 0.0348 | 0.0389 | 0.0435 | 0.0485 | 0.0537 | 0.059 | 0.0651 | 0.0711 | 0.0773 | 0.0843
in acetone | 0.000176 | 0.000192 | 0.000211 | 0.000228 | 0.000246 | 0.000265 | 0.000287 | 0.000308 | 0.00033 | 0.000353
in water | 3.48e-06 | 4.4e-06 | 5.61e-06 | 7.12e-06 | 9.14e-06 | 1.15e-05 | 1.43e-05 | 1.77e-05 | 2.14e-05 | 2.63e-05
